The values that follow come from a melting point compilation (Tetko et al.; mined from patent text by program, amines drawn as free bases though some values may be those of a salt).

Each structure is given as a SMILES string. Some results are limits rather than exact numbers.

The term melting point denotes the temperature of the solid-liquid transition.

As to `COc1cccc(-c2cc(Cl)c3cc(OC)ccc3n2)c1`, the melting point fell in the range of 106 to 107 °C.

As to `CCOCc1nc(N)c2nc(C)cnc2n1`, the melting point is 166 to 168 °C.

`O=C(c1ccc(Cl)cc1)C(Oc1cccc(Cl)n1)n1cncn1` (configuration not stated): the melting point stood at 162 °C.

As to `COc1ccc(S(=O)(=O)Nc2ccccc2NC(=O)c2ccc(OCc3ccccc3)cc2)cc1`, the melting point lay within 148 to 149 °C.

The compound `COC(=O)Cn1c2c(c3ccccc3c1=O)C(=O)c1ccccc1-2` yielded a melting point of 248 to 251 °C.

For the compound `CCCCC(=O)C(=C1NCCCS1)[N+](=O)[O-]`, the melting point lay within 61.5 to 64 °C.

`CC(C)(C)OC(=O)NCC(O)(CNCC(O)C(Cc1ccccc1)NC(=O)OC(C)(C)C)Cc1ccccc1` (configuration not stated): the melting point was in the range of 65 to 67 °C.

Regarding `N=C(N)NCCc1ccc(NC(=O)CC(c2ccccc2)(c2ccccc2)c2ccccc2)cc1`, the melting point was 213 to 215 °C.

Regarding `Cc1ccc(C(=O)Nc2nc(-c3ccccc3)c(-c3nc4ccccc4c(=O)n3-c3ccc(C)cc3)s2)cc1`, the melting point fell in the range of 217 to 218 °C.

In turn, `CCCNC(=O)NCCCCCN1CCC(CNC(=O)c2cc(Cl)c(N)cc2OC)CC1` registered a melting point of 144 to 147 °C.

As for `CCCCCn1c(C#N)ccc1-c1ccc2c(c1)C(C)(C)OC(=O)N2`, the melting point lay in the range of 128 to 131 °C.

The compound `Cc1c(NC(=O)CC(CSC(=O)COc2ccccc2)c2ccccc2)cccc1C(=O)O` (configuration not stated) showed a melting point of 130 to 132 °C.

In turn, `CC(C)(C#N)Cc1ccc2cc(CC(C)(C)C#N)ccc2c1` yielded a melting point of 178 to 180 °C.

Turning to `Cc1cccc(NC(=O)NC(CC(N)=O)C(=O)N(CC(=O)OC(C)(C)C)c2ccccc2)c1` (racemic), the melting point was found to be 192 °C.

On to `Cc1cnc2ccc(-c3cccnc3)nn12`, for which the melting point lay in the range of 173 to 175 °C.

Turning to `Cn1ccnc1-c1ccc(O)cc1`, the melting point is 239 to 242 °C.

In the case of `C#CCNc1nnc(-c2ccccc2)cc1C`, the melting point was 101 °C.

In turn, `O=C(CCCCCOc1ccc2c(c1)[nH]c1ccccc12)NO` returned a melting point of 192 °C.

`NS(=O)(=O)Oc1ccc2cc(C3CCCCC3)sc2c1` had a melting point of 128 °C.

Take `COP(=S)(OC)Oc1cc(-c2ccccc2)sc1C#N`: the melting point came to 95 °C.

The compound `O=C(O)C1=Cc2cc(Cl)c(-c3ccccc3)cc2OC1C(F)(F)F` (configuration not stated) came in with a melting point of 185 to 188 °C.

`COc1cc2c(cc1OC)C(=CN1CCN(C(=O)C3CCCCO3)CC1)C(=O)N2` (configuration not stated) showed a melting point of 208 to 210 °C.

With `Cc1cccc(NC(=O)NCCC(=O)N(CC(=O)OC(C)(C)C)c2ccccc2)c1`, the melting point turned out to be 142 °C.

The compound `FC(F)(F)c1cc(Cl)c(-c2nc(Br)c(Br)[nH]2)c(Cl)c1` displayed a melting point of 328 to 329 °C.

With `CCN(CC)c1cccc2c1OC1(CC1)C2=O`, the melting point is 39.3 °C.

`COc1ccc2c(-c3cc(F)ccc3F)noc2c1`: the melting point was 121 to 122 °C.

In the case of `Brc1cc(Br)c(COCc2cc(Br)c(Br)cc2Br)cc1Br`, the melting point was in the range of 162 to 164 °C.

`CCOC(=O)C(=CNC1CC1)C(=O)c1c(F)cc(F)c(F)c1F` gave a melting point of 107 to 108 °C.

As to `CC1(C(=O)n2ccnc2)CC1`, the melting point lay within 34 to 35 °C.

In turn, `O=C(O)CNC(=O)C(c1ccccc1)c1ccccc1` had a melting point of 113 to 115 °C.

`CCOC(=O)Cn1c(-c2ccccc2)nc2cccnc21` came in with a melting point of 93 to 95 °C.

`CCc1cc2c(=O)n3cc(C(=O)O)ccc3nc2s1` displayed a melting point of 255 to 257 °C.

`CCOC(=O)C(=CNc1cccc(-c2ccncc2)c1)C(C)=O` showed a melting point of 107 to 108 °C.

In turn, `O=C1c2ccccc2C(=O)N1C1CCC(c2cc(F)c(Br)cc2F)C1` (configuration not stated) showed a melting point of 44 to 47 °C.

On to `CC(=O)CCC(=O)N1CC1C#N` (configuration not stated), for which the melting point lay within 93 to 94 °C.

In turn, `CNC(=N[N+](=O)[O-])SC` had a melting point of 150 to 152 °C.

The compound `O=C1NC(=O)C(Cc2ccc(OCCn3nc(-c4ccccc4)c4ccccc4c3=O)cc2)S1` (configuration not stated) yielded a melting point of 198 °C.

`CCCCn1cnc2c(Oc3cccc(OC)c3)nc(Nc3ccc(F)cc3)nc21` yielded a melting point of 138 to 140 °C.

`CCS(=O)c1ccccc1S(=O)(=O)NC(=O)Nc1nc(OC)nc(OC)n1` (configuration not stated) showed a melting point of 165 °C.

`c1ccc2c(c1)Cn1cccc1C1(CCNCC1)O2`: the melting point lay within 168 to 170 °C.

For `O=C(C=C(c1ccccc1)c1ccccc1)Nc1ccc(C(=O)O)cc1`, the melting point fell in the range of 222 to 224 °C.

The compound `CN(CCO)c1nccc(-c2ccncc2)n1` showed a melting point of 191 to 195 °C.

In turn, `CNC1CCCN(c2c(F)cc3c(=O)c(C(=O)O)cn(C4CC4)c3c2OC)C1` (configuration not stated) came in with a melting point of 134 to 135 °C.

In turn, `Cn1nc(-c2c(F)cccc2Cl)nc1-c1ccc(Oc2ccc(C(F)(F)F)cn2)cc1Cl` returned a melting point of 139 to 141 °C.

The compound `O=S1(=O)Nc2cccc3c2N1CCC3` had a melting point of 96 °C.

Compound `N=C(N)c1ccc(N2CC(CN3CCN(CCC(=O)O)CC3)OC2=O)cc1` (configuration not stated) had a melting point of 269 °C.

With `O=C(O)c1cccn2cc(-c3ccccc3)nc12`, the melting point turned out to be 226 °C.

Compound `CC(=S)NCC1CN(c2ccc(-n3cnc(Cn4ccnc4)c3)c(F)c2)C(=O)O1` (configuration not stated) yielded a melting point of 160 to 162 °C.

Consider `COc1cc(C)c(C(=O)CCCCCCCCCCCO)c(O)c1OC`, for which the melting point stood at 82 °C.

`Cc1cccc(OCC2=NCCN2C(=O)Nc2ccccc2)c1C` came in with a melting point of 150 to 152 °C.

The compound `O=c1[nH]ccc2cc(S(=O)(=O)N3CCCNCC3)ccc12` came in with a melting point of 266 to 267 °C.

`C=CCOc1cc(C=CNC(=O)OC)ccc1OCC(O)CNC(C)C` (configuration not stated) yielded a melting point of 91 to 92 °C.

`COC(=O)C1=C(N)C(CCCCC(=O)O)SC1` (configuration not stated) returned a melting point of 98 to 102 °C.

Take `Cc1n[nH]c(=O)n(Cc2ccccc2)c1=O`: the melting point fell in the range of 143 to 146 °C.

As to `CSc1nc(Cl)cc(N(C)C)n1`, the melting point came to 102 °C.

As to `CCc1nn(Cc2cccnn2)c(C(N)=O)c1N`, the melting point fell in the range of 171 to 174 °C.

`CC(C)(C)NS(=O)(=O)c1cc2c(s1)S(=O)(=O)NCC2O` (configuration not stated): the melting point fell in the range of 144 to 147 °C.

Take `Cn1cnc2c(N(Cc3ccccc3)Cc3ccccc3)nc(Cl)nc21`: the melting point lay in the range of 144 to 146 °C.

`O=C1CC(c2ccc(Br)cc2)Oc2ccc(Br)cc21` (configuration not stated) came in with a melting point of 115 to 117 °C.

Take `CC(C)(C)OC(=O)N1CCC(Oc2ccc(C#N)c(/C=C/N3CCCC3)c2)CC1`: the melting point was in the range of 115 to 117 °C.

On to `CCOCc1nc2c(N)nc3cccnc3c2n1CCCC(=O)N1CCOCC1`, for which the melting point is 156 to 157 °C.

Take `COC(=O)c1scc(-c2ccccc2)c1-c1ccc(SC)c(F)c1`: the melting point stood at 141 °C.

`CCOc1ccc2c(c1)n(C1CCCCC1)c(=O)n2Cc1ccc(S(=O)(=O)NC(C)(C)CC)cc1` displayed a melting point of 165 °C.

`CS(=O)(=O)c1ccc(-c2cnc(-c3ccc(F)cc3)s2)s1` came in with a melting point of 183 to 184 °C.

For `CCOC(=O)C=Cc1cc(-c2ccc3c(c2)C(C)(C)CCC3(C)C)cs1`, the melting point fell in the range of 82 to 84 °C.

For `Nc1sc2c(c1C(=O)c1ccc3ccccc3c1)CCN(Cc1ccc(F)cc1)C2`, the melting point lay in the range of 94 to 96 °C.

`CNC1c2ccccc2-c2[nH]c(=O)c3nccn3c21` (configuration not stated) showed a melting point of 184 °C.

`NC1=CC(=O)C(N)=C(CCCCCC2=C(N)C(=O)C=C(N)C2=O)C1=O` displayed a melting point greater than 250 °C.

As to `Cc1nn(CCO)c(C)c1Oc1cc(Cl)cc(Cl)c1`, the melting point lay in the range of 114 to 115 °C.

As to `c1cncc(CC2CCN(CC34CC(c5ccccc53)c3ccccc34)CC2)c1`, the melting point was in the range of 183 to 185 °C.

With `COc1ccccc1C=CC(=O)C(CC=Cc1ccccc1Cl)(CCC(=O)O)c1ccccc1` (configuration not stated), the melting point lay within 206 to 210 °C.

On to `FC(F)(F)c1cc(CBr)c(C(F)(F)F)cc1CBr`, for which the melting point was 80 to 81 °C.

In turn, `CSC(=C[N+](=O)[O-])S(C)=O` (configuration not stated) had a melting point of 137 to 143 °C.

Compound `Cn1c([N+](=O)[O-])cnc1-c1nc2ccccc2n1CCN1CCOCC1` registered a melting point of 237 °C.

Compound `Cc1c(CNCCc2cc3cccc(F)c3n2C)ncn1S(=O)(=O)N(C)C` returned a melting point of 114 to 116 °C.

In the case of `CS(=O)(=O)Nc1cc(O)c2c(c1)C(=O)c1cccc(O)c1C2=O`, the melting point was greater than 300 °C.

The compound `COc1cc(COc2nn(-c3ccccc3)cc2/C=C\c2cscn2)ccc1OCc1nc(-c2ccco2)oc1C` returned a melting point of 137 to 138 °C.

As to `Cc1c(C(=O)c2sc(Nc3ccc(S(N)(=O)=O)cc3)nc2N)sc2ccccc12`, the melting point was in the range of 274 to 276 °C.

`Nc1ncc2c(=O)c(C(=O)ON3C(=O)CCC3=O)c[nH]c2n1`: the melting point was greater than 300 °C.

On to `O=C(NC(=O)c1ccccn1)NC1CN2CCC1CC2` (configuration not stated), for which the melting point was 202 to 203 °C.

Compound `Fc1cc(-c2ccc3nnn(Cc4ccc5ncccc5c4)c3n2)ccc1OC1CCOCC1` registered a melting point of 165 to 167 °C.

Consider `CC(C)(CC(=O)C(=O)Nc1ccc2c(c1Br)COC2=O)c1ccccc1`, for which the melting point was in the range of 150 to 152 °C.

Turning to `CC=C(NC(=O)CCC1CCCC1)C(=O)O`, the melting point was 180 to 182 °C.

`CC(C)(C)OC(=O)N1CCN(c2ccc(NC(=O)Nc3nc(C(C)(C)C)cs3)cc2)CC1` came in with a melting point of 123 to 124 °C.

Compound `CC(=O)c1ccc(Nc2nc(N)c(C(=O)c3sccc3C)s2)cc1` came in with a melting point of 171 to 172 °C.

In the case of `CC(C)CN1CCC(N(C)S(=O)(=O)c2ccc(Nc3nccc(Nc4ccc(F)cc4)n3)cc2)CC1`, the melting point fell in the range of 194 to 195 °C.

`COC(=O)CN1CCC(NC(=O)OC(C)(C)C)CC1` gave a melting point of 96 to 98 °C.

`CNc1cc(Cl)cc(Cl)c1[N+](=O)[O-]` had a melting point of 120 °C.

For `NC(=O)Nc1ccc2c(OCc3ccccc3-c3ccccc3)cccc2c1`, the melting point lay within 159 to 161 °C.

`N#Cc1nn(-c2c(Cl)cc(C(F)(F)F)cc2Cl)c([N+](=O)[O-])c1OC(F)F` came in with a melting point of 72.5 to 74 °C.

In turn, `CCc1noc(-c2ncn(-c3cccc(O)c3)c2COC)n1` had a melting point of 98 to 99 °C.

`O=C1Nc2cc(CN3CC=C(c4ccc(Cl)cc4)CC3)cnc2N2CCC[C@@H]12`: the melting point is 234 to 235 °C.
